Calls of active or inactive are those of the source.
How the values were obtained:
[1] = target: T1, Aryl hydrocarbon receptor (Homo sapiens, UniProt P35869); test: Luminescence-based cell-based high throughput dose response assay for activators of the Aryl Hydrocarbon Receptor (AHR). [Related pubchem assays: 2796 (Primary screen (AHR activators in singlicate)), 2845 (Confirmation screen (AHR activators in triplicate)), 434939 (Counterscreen (PXR activators in triplicate)), 2804 (Summary (AHR activators))]; type: ADME
T1 sequence (P35869 whole entry): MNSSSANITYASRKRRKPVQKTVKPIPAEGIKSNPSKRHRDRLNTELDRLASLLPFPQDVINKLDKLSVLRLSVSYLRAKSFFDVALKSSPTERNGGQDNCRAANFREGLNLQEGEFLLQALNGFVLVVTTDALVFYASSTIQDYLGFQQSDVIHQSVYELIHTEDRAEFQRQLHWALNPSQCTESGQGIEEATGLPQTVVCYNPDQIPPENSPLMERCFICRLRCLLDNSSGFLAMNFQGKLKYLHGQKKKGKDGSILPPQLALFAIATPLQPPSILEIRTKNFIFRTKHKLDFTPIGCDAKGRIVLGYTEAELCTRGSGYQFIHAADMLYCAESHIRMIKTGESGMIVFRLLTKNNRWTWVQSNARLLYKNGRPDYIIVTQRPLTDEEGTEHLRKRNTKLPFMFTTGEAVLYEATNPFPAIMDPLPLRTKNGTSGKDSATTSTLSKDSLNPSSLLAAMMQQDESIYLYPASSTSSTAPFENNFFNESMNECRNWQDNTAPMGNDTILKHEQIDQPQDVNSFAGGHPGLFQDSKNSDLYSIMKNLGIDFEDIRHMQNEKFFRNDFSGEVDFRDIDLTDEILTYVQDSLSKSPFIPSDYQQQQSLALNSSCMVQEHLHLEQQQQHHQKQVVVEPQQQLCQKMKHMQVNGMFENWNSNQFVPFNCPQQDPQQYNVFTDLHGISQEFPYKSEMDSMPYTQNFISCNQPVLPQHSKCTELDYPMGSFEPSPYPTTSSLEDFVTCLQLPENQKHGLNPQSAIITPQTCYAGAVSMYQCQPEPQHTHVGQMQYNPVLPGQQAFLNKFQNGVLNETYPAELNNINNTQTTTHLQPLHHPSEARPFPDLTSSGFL

[2] = NIH3T3 cell viability loss – ATP luminescence, mouse fibroblasts, counter-screen, dose response (AID 2010); type: functional, cell-based;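 note: cells exposed to compound for about 90 hours before reading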
[3] = target: Peroxisome proliferator-activated receptor gamma/Nuclear receptor coactivator 1 (Homo sapiens, UniProt P37231); type: functional;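 note: agonist potency as compounds enhance coactivator SRC-1 recruitment to PPARgamma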
[4] = target: Peroxisome proliferator-activated receptor gamma/Nuclear receptor coactivator 2 (Homo sapiens, UniProt P37231); type: functional;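 note: agonist potency for raising coactivator recruitment to the receptor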
[5] = target: Peroxisome proliferator-activated receptor gamma/Nuclear receptor coactivator 3 (Homo sapiens, UniProt P37231); type: functional;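 note: agonist potency for raising coactivator recruitment to the receptor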
[6] = Trypanosoma cruzi growth suppression in host cells – NIH3T3 host cells, beta-gal luminescence, confirmation (AID 2044); type: functional, cell-based;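 note: intracellular parasites grown in NIH/3T3 mouse fibroblasts as host cells; luminescent beta-galactosidase reporter signal from transgenic T. cruzi replicating inside host cells; inhibitors lower the luminescence signal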
Vero = test: viability of Vero cells under compound – cytotoxicity control for flavivirus capping enzyme inhibitors (AID 588742); type: functional; settings: Chlorocebus sabaeus
Streptococcus = test: GAS UMAA2166 growth inhibition – luminescence, BacTiterGlo, counter-screen for streptokinase expression inhibitor project, dose response (AID 1915); type: functional, organism-based;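 note: potency for reduction of bacterial viability or growth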
Genome polyprotein = Genome polyprotein (dengue virus type 2, UniProt P29990); test: flavivirus cap methylation enzyme inhibition – biochemical, confirmation dose response, primary screen (AID 588689); type: functional
Genome polyprotein, sequence (P29990 2492-3391 limits assumed): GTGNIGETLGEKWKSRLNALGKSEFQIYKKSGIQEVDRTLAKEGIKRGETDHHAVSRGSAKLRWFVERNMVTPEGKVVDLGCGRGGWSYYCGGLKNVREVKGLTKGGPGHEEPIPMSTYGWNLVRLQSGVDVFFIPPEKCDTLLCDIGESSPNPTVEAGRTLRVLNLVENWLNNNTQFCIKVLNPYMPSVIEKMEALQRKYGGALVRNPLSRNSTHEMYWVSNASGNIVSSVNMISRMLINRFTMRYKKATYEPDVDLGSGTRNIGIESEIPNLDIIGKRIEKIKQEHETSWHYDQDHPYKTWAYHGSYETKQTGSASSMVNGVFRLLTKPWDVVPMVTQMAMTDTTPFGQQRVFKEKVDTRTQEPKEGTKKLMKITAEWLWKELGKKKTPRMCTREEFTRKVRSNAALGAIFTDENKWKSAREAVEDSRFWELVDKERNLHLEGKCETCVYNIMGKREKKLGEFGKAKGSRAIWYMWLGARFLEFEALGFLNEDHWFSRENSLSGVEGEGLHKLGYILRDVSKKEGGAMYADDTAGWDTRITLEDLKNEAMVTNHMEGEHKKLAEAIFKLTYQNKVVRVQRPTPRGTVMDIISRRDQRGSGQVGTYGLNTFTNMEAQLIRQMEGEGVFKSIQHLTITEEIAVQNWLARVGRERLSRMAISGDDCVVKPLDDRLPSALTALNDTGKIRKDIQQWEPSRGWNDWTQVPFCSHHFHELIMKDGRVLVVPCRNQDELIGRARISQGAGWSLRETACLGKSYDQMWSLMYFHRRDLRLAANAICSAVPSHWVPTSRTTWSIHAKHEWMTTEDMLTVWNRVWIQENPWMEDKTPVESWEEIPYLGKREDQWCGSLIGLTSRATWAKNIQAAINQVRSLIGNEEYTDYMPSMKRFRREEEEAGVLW

[7] = target: T2, Alkaline phosphatase, tissue-nonspecific isozyme (Homo sapiens, UniProt P05186)
T2 sequence (P05186 whole entry): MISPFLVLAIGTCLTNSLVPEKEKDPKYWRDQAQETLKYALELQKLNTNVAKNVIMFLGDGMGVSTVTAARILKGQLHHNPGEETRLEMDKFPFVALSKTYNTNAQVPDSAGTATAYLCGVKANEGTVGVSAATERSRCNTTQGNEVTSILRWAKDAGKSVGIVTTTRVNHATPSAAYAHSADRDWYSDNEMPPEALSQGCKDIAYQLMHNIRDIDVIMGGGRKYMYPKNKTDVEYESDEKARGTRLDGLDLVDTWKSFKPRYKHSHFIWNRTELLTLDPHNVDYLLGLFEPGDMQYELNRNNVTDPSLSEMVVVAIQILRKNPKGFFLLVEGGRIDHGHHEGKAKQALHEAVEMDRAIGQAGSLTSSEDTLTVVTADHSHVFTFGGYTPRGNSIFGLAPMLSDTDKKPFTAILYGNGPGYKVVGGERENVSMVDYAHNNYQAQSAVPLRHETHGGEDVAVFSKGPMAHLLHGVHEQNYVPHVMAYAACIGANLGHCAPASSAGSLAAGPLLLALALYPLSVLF

[8] = tested on: Streptococcus sp. 'group A'; test: Streptococcus pyogenes SK(-)GAS viability under kanamycin – luminescence, BacTiterGlo, confirmation, counter-screen for streptokinase expression inhibitor project, dose response (AID 1900); type: functional, organism-based
[9] = Luminescence-based dose response cell-based high throughput screening assay for cytotoxic compounds using the IEC-6 intestinal epithelial cell line. [Related pubchem assays: 1858 (Summary AID.), 1825 (Counterscreen.), 1907 (Confirmation screen.)]; type: functional
[10] = Luminescence Cell-Based Dose Response HTS to Identify Inhibitors of 5'UTR Stem-Loop Driven Prion Protein mRNA Translation in H4 Neuroglioblastoma Cells. [Related pubchem assays: 1827 (Project Summary), 1813 (Primary HTS)]; type: functional
BJ [11] = test: cells; type: functional, cell-based; settings: Homo sapiens
BJ [12] = test: BJ-TERT fibroblast viability loss – cell-based, RAS-independent, luminescence, dose response (AID 1933); type: functional; settings: Homo sapiens
[13] = luciferase reporter signal suppression in cells – H4 neuroglioma cells, luminescence, dose response (AID 1990); type: functional, cell-based
BJ [14] = test: BJ-TERT-LT-ST fibroblast viability loss – cell-based, RAS-independent, luminescence, dose response (AID 1935); type: functional; settings: Homo sapiens;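 note: BJ fibroblasts immortalized with TERT plus LT and ST oncogenes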
[15] = DRD fibroblast viability loss – cell-based, non-viral oncogenic, luminescence, dose response (AID 1934); type: functional; settings: Homo sapiens
[16] = alpha-synuclein stem-loop luciferase translation blockers – H4 neuroglioma cells, luminescence, confirmation (AID 1988); type: functional, cell-based
X-box-binding protein 1 = X-box-binding protein 1 (Homo sapiens, UniProt P17861); type: functional, Cricetulus griseus;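 note: confirmatory dose-response counter-screen serving a CHOP assay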
X-box-binding protein 1, sequence (P17861 whole entry): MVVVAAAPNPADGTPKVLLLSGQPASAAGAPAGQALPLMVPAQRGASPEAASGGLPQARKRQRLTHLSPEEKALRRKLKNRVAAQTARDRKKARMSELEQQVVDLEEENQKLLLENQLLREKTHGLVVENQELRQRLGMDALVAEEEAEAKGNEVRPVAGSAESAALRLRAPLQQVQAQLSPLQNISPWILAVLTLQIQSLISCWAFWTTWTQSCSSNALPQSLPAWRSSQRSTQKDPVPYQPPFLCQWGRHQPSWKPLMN

[17] = A cytotoxicity screen of small molecule inhibitors of the PhoP region in Salmonella typhi identified in the primary screen. [Related pubchem assays: 1850, 1864, 1985 ]; type: functional
[18] = target: Voltage-gated N-type calcium channel alpha-1B subunit/Amyloid beta A4 precursor protein-binding family A member 1 (Homo sapiens, UniProt Q00975+Q02410); test: disruptors of Mint-PDZ/N-type channel peptide interaction – biochemical, HTRF, set 2, SAR follow-up (AID 434980); type: functional
Voltage-gated N-type calcium channel alpha-1B subunit/Amyloid beta A4 precursor protein-binding family A member 1, sequence (Q00975 whole entry): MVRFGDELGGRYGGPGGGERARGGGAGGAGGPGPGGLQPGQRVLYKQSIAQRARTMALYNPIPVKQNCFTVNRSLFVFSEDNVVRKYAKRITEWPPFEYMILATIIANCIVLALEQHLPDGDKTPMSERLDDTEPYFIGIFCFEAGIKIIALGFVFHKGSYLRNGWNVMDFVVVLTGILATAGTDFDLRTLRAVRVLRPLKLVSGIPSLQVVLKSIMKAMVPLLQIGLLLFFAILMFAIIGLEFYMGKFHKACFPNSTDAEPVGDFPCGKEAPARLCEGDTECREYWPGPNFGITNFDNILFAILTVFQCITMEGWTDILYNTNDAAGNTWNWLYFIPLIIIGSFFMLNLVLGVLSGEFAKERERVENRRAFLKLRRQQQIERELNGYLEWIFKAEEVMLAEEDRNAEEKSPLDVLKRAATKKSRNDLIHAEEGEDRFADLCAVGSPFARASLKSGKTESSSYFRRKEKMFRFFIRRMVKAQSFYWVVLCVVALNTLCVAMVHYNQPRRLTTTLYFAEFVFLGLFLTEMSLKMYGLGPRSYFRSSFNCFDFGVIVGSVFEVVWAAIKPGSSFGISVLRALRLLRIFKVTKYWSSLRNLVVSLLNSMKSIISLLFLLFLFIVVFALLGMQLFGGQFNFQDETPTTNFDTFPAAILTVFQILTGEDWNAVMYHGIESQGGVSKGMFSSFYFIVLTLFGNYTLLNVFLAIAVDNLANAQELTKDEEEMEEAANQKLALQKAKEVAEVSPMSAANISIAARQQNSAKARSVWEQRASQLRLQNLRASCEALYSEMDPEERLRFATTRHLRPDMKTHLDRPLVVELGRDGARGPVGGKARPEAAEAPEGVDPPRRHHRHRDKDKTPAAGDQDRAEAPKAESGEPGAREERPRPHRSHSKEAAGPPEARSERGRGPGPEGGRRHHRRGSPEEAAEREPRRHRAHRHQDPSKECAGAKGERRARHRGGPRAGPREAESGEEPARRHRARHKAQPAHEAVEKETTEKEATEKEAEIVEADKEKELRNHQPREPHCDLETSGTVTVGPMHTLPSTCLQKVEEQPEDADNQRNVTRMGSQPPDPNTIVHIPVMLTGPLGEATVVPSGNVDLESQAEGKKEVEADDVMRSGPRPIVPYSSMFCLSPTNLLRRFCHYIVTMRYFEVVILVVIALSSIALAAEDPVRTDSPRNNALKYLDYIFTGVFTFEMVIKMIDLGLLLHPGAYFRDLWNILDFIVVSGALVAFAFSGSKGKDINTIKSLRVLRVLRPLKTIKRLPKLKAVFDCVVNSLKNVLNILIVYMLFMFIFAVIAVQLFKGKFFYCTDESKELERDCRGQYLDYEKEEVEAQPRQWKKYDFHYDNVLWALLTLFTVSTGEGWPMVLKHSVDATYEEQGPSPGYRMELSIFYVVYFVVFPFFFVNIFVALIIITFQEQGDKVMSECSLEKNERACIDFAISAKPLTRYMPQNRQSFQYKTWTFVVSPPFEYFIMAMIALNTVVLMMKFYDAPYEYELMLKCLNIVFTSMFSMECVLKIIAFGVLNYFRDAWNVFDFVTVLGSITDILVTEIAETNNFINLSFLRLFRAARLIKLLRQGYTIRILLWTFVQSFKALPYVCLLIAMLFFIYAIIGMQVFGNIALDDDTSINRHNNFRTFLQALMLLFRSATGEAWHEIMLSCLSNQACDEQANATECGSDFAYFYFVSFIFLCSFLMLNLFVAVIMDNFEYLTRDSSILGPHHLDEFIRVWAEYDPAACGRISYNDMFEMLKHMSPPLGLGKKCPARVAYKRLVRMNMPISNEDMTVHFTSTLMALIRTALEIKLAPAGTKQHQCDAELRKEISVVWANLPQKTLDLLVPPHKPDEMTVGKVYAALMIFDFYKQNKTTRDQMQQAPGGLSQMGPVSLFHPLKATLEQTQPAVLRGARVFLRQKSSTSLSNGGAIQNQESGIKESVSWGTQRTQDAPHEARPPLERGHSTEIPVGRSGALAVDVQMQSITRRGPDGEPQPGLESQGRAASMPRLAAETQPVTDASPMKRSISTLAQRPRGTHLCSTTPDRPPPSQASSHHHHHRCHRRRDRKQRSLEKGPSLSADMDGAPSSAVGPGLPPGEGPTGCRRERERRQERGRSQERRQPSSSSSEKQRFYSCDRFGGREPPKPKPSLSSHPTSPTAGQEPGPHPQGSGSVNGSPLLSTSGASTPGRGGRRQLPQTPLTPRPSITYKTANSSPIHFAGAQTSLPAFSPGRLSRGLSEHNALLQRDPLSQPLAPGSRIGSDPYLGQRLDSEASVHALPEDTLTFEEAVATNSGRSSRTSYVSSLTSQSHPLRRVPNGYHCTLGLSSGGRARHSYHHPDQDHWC
Voltage-gated N-type calcium channel alpha-1B subunit/Amyloid beta A4 precursor protein-binding family A member 1, sequence (Q02410 whole entry): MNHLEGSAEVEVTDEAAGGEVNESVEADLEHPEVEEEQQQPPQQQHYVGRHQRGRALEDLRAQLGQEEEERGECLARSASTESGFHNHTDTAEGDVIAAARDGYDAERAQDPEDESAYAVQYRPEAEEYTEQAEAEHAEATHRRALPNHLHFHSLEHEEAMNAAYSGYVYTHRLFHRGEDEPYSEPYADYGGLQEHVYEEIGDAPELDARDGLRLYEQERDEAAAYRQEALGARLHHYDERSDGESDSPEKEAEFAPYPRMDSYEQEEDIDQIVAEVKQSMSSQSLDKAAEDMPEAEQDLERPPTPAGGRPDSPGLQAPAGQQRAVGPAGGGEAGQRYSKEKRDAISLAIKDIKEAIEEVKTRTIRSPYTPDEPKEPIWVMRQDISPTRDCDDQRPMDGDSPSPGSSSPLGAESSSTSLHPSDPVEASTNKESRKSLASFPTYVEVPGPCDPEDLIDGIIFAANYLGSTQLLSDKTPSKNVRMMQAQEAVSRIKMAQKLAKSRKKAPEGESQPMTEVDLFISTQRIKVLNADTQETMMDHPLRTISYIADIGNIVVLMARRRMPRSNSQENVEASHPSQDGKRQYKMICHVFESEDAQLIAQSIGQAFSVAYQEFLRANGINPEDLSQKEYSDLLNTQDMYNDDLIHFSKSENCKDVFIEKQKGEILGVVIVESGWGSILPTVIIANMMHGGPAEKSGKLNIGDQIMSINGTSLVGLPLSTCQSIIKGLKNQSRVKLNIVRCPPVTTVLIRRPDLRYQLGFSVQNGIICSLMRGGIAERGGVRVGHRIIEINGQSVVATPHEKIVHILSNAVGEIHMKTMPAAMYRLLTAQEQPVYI

CCOc1ccc(/C=N/n2cc(-c3ccccc3)nc2S)cc1
EC50 [1]: 4.76 µM (active)
EC50 [2]: > 60 µM (not active)
EC50 [3]: > 79.4 µM (not active)
EC50 [4]: > 79.4 µM (not active)
EC50 [5]: > 79.4 µM (not active)
EC50 [6]: 2.35 µM (active)

Fc1cccc2sc(Nc3nnc(-c4ccccc4)o3)nc12
CC50 (Vero): 27 µM (active)
EC50 (Streptococcus): 6.97 µM (active)
IC50 (Genome polyprotein): 50.2 µM (active)
EC50 [7]: 44.2 µM (active)
EC50 [8]: 2 µM (active)

Cc1ccc(-n2ncc(C(=O)Nc3cc(Cl)cc(Cl)c3)c2C2CCNCC2)cc1C
IC50 [9]: 5.23 µM (active)
EC50 [2]: > 30 µM (not active)
EC50 [10]: 9.16 µM (active)
EC50 (BJ [11]): 8.6 µM (inconclusive)
EC50 (BJ [12]): 3.72 µM (active)
EC50 [13]: > 120 µM (not active)
EC50 (BJ [14]): 6.96 µM (inconclusive)
EC50 [15]: 5.28 µM (active)
EC50 [16]: 7.75 µM (active)
EC50 [6]: 2.02 µM (active)

CCOc1cc(S(=O)(=O)Nc2cc(C)cc(C)c2)ccc1Cl
Absolute IC50 (XBP1) (X-box-binding protein 1): 10 µM

Clc1ccc2[nH]c(N3CCCCC3)nc2c1
EC50 [17]: > 50 µM (active)

Cc1nc(Cl)sc1C(=O)Nc1ccc(C(F)(F)F)cc1
EC50 [1]: 1.57 µM (active)

O=C(c1cc(-c2ccco2)nc2ccccc12)N1CCC(CO)CC1
IC50 [18]: > 56.8 µM (inactive)
